PubChem BioAssay (NCI)
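Protocol summary: plate cells (96-well), add compound at 5 concentrations, incubate 48 h, interpolate endpoints linearly. The concentration for 50% growth inhibition is given as GI50. At the TGI there is no net growth.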

How the values were obtained:
Assay in all cases: DTP human tumour cell line panel, 48 h
HOP-62 NSCLC = test system: HOP-62 NSCLC
SF-295 CNS = test system: SF-295 CNS
NCI-H460 lung = test system: NCI-H460 lung
M14 melanoma = test system: M14 melanoma
SNB-75 CNS = test system: SNB-75 CNS
LOX IMVI melanoma = test system: LOX IMVI melanoma
HOP-92 NSCLC = test system: HOP-92 NSCLC
KM12 colon = test system: KM12 colon
IGROV1 ovarian = test system: IGROV1 ovarian
HS 578T breast = test system: HS 578T breast

Compound	TGI (HOP-62 NSCLC) [µM]	TGI (SF-295 CNS) [µM]	TGI (NCI-H460 lung) [µM]	TGI (M14 melanoma) [µM]	TGI (SNB-75 CNS) [µM]	TGI (LOX IMVI melanoma) [µM]	TGI (HOP-92 NSCLC) [µM]	TGI (KM12 colon) [µM]	TGI (IGROV1 ovarian) [µM]	GI50 (HOP-62 NSCLC) [µM]	GI50 (SF-295 CNS) [µM]	GI50 (NCI-H460 lung) [µM]	GI50 (M14 melanoma) [µM]	GI50 (SNB-75 CNS) [µM]	GI50 (LOX IMVI melanoma) [µM]	GI50 (HOP-92 NSCLC) [µM]	GI50 (KM12 colon) [µM]	GI50 (IGROV1 ovarian) [µM]	GI50 (HS 578T breast) [µM]	TGI (HS 578T breast) [µM]
CC1=C(C(=O)Nc2cc(=O)n(C)c(=O)n2C)C(c2cccc([N+](=O)[O-])c2)C(C(=O)Nc2cc(=O)n(C)c(=O)n2C)=C(C)N1	> 100	> 100	> 100	> 100	99.5	> 100	> 100	> 100	> 100	–	–	–	–	–	–	–	–	–	–	–
COc1cc(OC)c(SSCCCCS(=O)O)c(OC)c1	67	26.8	38.1	27.5	25.4	29	–	29.4	57.8	–	–	–	–	–	–	–	–	–	–	–
C[C@]12CCC(=O)C(O)=C1CC[C@@H]1C2CC[C@]2(C)NC(=O)CCC12 (stereo not given in full)	> 100	> 100	> 100	> 100	> 100	> 100	> 100	> 100	> 100	–	–	–	–	–	–	–	–	–	–	–
CC(C)[O-].CC(C)[O-].O=C1C=C([O-])C(=O)c2ccccc21.O=C1C=C([O-])C(=O)c2ccccc21.[Ti+4]	> 100	> 100	> 100	> 100	> 100	> 100	> 100	> 100	> 100	> 100	28.1	15.3	17.8	17.5	5.21	> 100	> 81.4	> 100	–	–
COc1ccc(C(=O)C(C(=O)CC(=O)Nc2cccc(C(F)(F)F)c2)c2ccc(OC)cc2)cc1 (stereo not given)	> 100	> 100	> 100	> 100	85.5	–	> 100	> 100	> 100	–	–	–	–	–	–	–	–	–	–	–
CCOC(=O)Cc1ccc2c(c1O)C(=O)c1c(ccc(CC(=O)OCC)c1O)C2=O	> 100	> 100	–	> 100	> 100	> 100	> 100	> 100	–	–	–	–	–	–	–	–	–	–	–	–
Cc1ccc(NC2=C(Cl)C(=O)N(Cc3ccc(Cl)cc3)C2=O)cc1O	26.4	19.8	20.5	38	–	32.1	–	39.6	33	9.99	4.04	4.29	13.8	–	4.09	–	13.8	11.2	16.4	75.8
Cc1cc(-c2nc3sccn3c2/C=N/N=C(N)N)c(C)s1	32.1	26.3	30.4	29.3	30.2	30.5	–	26.1	–	17.4	13.5	16.8	15.8	15	16.4	–	13.3	–	–	–
Cn1nc(-c2ccccc2)c(C(=O)/C=C/c2ccc(Cl)cc2)c(N2CCCCC2)c1=O	5.68	2.14	7.4	9.17	–	6.09	5.14	–	4.95	–	–	–	–	–	–	–	–	–	–	–
O=C(O)c1ccc(Oc2nccc(-c3c(-c4ccc(F)cc4)ncn3C3CCNCC3)n2)cc1	> 25	> 25	> 25	> 25	> 25	> 25	–	> 25	> 25	> 25	> 25	> 25	> 25	> 25	> 25	–	> 25	> 25	> 25	> 25
O=C(c1ccccc1)c1c(-c2ccccc2)sc2nc3ccccc3nc12	> 100	> 100	> 100	> 100	85.6	–	> 100	> 100	> 100	–	–	–	–	–	–	–	–	–	–	–
COC(=O)CC[C@]1(C)O[C@H]2[C@H]([C@@H](C)CCCC(C)=O)OC(=O)[C@@H]2C[C@H]1O	–	> 100	> 100	–	> 100	> 100	> 100	> 100	> 100	–	> 100	> 100	–	> 100	> 100	> 100	> 100	39.4	–	–
COc1ccc2c3c([nH]c2c1[N+](=O)[O-])C(C)N(Cc1ccc([N+](=O)[O-])cc1)CC3 (stereo not given)	–	43	34.7	35.9	–	26.8	–	49.6	> 100	–	–	–	–	–	–	–	–	–	–	–
COc1ccccc1C(O)(c1ccccc1)C(O)(c1ccccc1)c1ccccc1OC (stereo not given)	> 100	> 100	> 100	> 100	> 100	> 100	> 100	> 100	> 100	–	–	–	–	–	–	–	–	–	–	–
CCN(CC)CCCNC(=O)C1COc2cc(-c3cc(=O)c4ccccc4o3)ccc2O1 (stereo not given)	> 100	> 100	> 100	40	> 100	48.2	> 100	–	> 100	–	–	–	–	–	–	–	–	–	–	–
CC1=C[C@]2(O)C(=O)[C@H](C)C[C@H]3[C@@H](CC[C@@](C)(O)/C=C\2C1=O)C3(C)C	> 70.3	75.8	> 57.6	39.9	> 100	34.6	48.2	> 100	53.1	–	–	–	–	–	–	–	–	–	–	–
CCOc1ccc(N=Cc2ccc3cc(C)ccc3n2)cc1	> 100	> 100	> 100	> 100	> 100	> 100	> 100	> 100	> 100	–	–	–	–	–	–	–	–	–	–	–
C=C(NC(=O)C(=C)NC(=O)c1csc(C2=NC3c4csc(n4)C4NC(=O)c5csc(n5)C(C(C)(O)C(C)O)NC(=O)C5CSC(=N5)C(=CC)NC(=O)C(C(C)O)NC(=O)c5csc(n5)C3(CC2)NC(=O)C(C)NC(=O)C(=C)NC(=O)C(C)NC(=O)C(C(C)CC)NC2C=Cc3c(C(C)O)cc(nc3C2O)C(=O)OC4C)n1)C(N)=O (stereo not given)	> 100	66.9	> 100	12.7	83.7	> 100	–	27.5	> 100	22.9	21.2	17	3.49	8.12	3.7	–	5.52	64.8	> 100	> 100
